Assay results reported in patent US20200190062A1, “HETEROCYCLIC COMPOUND AND PHARMACEUTICAL COMPOSITION COMPRISING SAME” (BEYONDBIO INC., priority 2015, published 2020).
Where a name gives a salt, the structure may show the parent alone.

Assays:
Assay in all cases: Inhibition of cancer cell proliferation (MTT)
Format in all cases: cell-based, human
A549 = system: A549
Protocol: (§1) A test was conducted to confirm whether the compounds obtained in the above Examples can inhibit proliferation of human colon carcinoma cell line HCT116, glioblastoma cell lines U-87MG and T98G, neuroblastoma cell lines SH-SYSY and SK-N-SH, and lung cancer cell lines A549 and NCI-H23.
(§2) HCT116, U-87MG, SH-SYSY, SK-N-SH and A549 cells were culured in DMEM medium containing 10% FBS. T98G cells were cultured in MEM medium containing 10% FBS and NCI-H23 cells were cultured in […] medium containing 10% FBS. In order to analyze an inhibition of proliferation, HCT116 cells were dispensed in 2000 cells/well into 96 well plate, and SH-SYSY, SK-N-SH, U-87MG, T98G, A549, and NCI-H23 cells were dispensed in 3000 cells/well into 96 well plate. And then, the cells were cultured at 5% CO2 and 37° C. for 16 hrs to allow the cells to attach to the wells. The compounds of the above Examples were added to each well at a concentration of 0.004, 0.013, 0.04, 0.12, 0.37, 1.1, 3.3, and 10 uM, and the culture volume was adjusted to 100 ul. A control group was treated with dimethylsulfoxide (DMSO) at the same concentration, 0.08%, as used to treat the test compounds. Afterwards, cells were cultured at 5% CO2 and 37° C. for 72 hrs. And then, 10 ul of the solution of MTT (3-(4,5-dimethylthiazol-2-yl)-2,5-diphenyltetrazolium bromide) dissolved in PBS at 5 mg/ml was added to each well to identify viable cells and the cells were cultured for further 2 hrs. The culture solution was removed, 100 ul of DMSO was added to dissolve the formed formazan and then an absorbance was measured at 535 nm. Based on the absorbance of the control cells not treated with the compounds, the amounts of the viable cells according to the concentration of the compounds were calculated. GI50 (growth inhibition 50) value which is the concentration of the compound to inhibit cancer cell proliferation by 50% was calculated using Graphpad Prism 5.0 program.

HCT116 = system: HCT116
Protocol: as §1, §2

NCI-H23 = system: NCI-H23
Protocol: as §1, §2

T98G = system: T98G
Protocol: as §1, §2

U-87MG = system: U-87MG
Protocol: as §1, §2

Compound | GI50 (A549; 72 hrs) [nM] | GI50 (HCT116; Homo sapiens, HCT-116, 72 h) [nM] | GI50 (NCI-H23; Homo sapiens, NCI-H23, 72 h) [nM] | GI50 (T98G; Homo sapiens, T98G, 72 h) [nM] | GI50 (U-87MG; Homo sapiens, U-87 MG, 72 h) [nM] | GI50 (A549; Homo sapiens, A549, 72 h) [nM] | GI50 (HCT116; 72 hrs) [nM] | GI50 (NCI-H23; 72 hrs) [nM] | GI50 (T98G; 72 hrs) [nM] | GI50 (U-87MG; 72 hrs) [nM]
CCCN1CCCC(c2cc(-c3nc(-c4ccnc(N)c4F)ccc3O)nc(N)n2)C1 (stereo not shown) [Example 40, 2′-amino-6-(2-amino-6-(1-propylpiperidin-3-yl)pyrimidin-4-yl)-3′-fluoro-[2,4′-bipyridin]-5-ol] | 10 | 10 | 30 | 50 | 20 |  |  |  |  | 
CCCN1CCC(c2cc(-c3nc(-c4ccnc(N)c4F)ccc3O)nc(N)n2)CC1 [Example 87, 2′-amino-6-(2-amino-6-(1-propylpiperidin-4-yl)pyrimidin-4-yl)-3′-fluoro-[2,4′-bipyridin]-5-ol 4hydrochloride] | 10 |  |  |  |  |  | 3 | 40 | 20 | 10
CCCc1c(-c2nc(-c3ccnc(N)c3F)ccc2O)nc(N)nc1C1CCN(C(C)C)CC1 [Example 106, 2′-amino-6-(2-amino-6-(1-isopropylpiperidin-4-yl)-5-propylpyrimidin-4-yl)-3′-fluoro-[2,4′-bipyridin]-5-ol 4hydrochloride] | 820 |  |  |  |  |  | 60 | 170 | 140 | 90
CCCc1cnc(N)nc1-c1nc(-c2ccnc(N)c2F)ccc1O [Example 57, 2′-amino-6-(2-amino-5-propylpyrimidin-4-yl)-3′-fluoro-[2,4′-bipyridin]-5-ol] | 40 | 20 | 40 |  | 20 |  |  |  | 60 | 
CCN1CCCC(c2cc(-c3nc(-c4ccnc(N)c4F)ccc3O)nc(N)n2)C1 (stereo not shown) [Example 90, 2′-amino-6-(2-amino-6-(1-ethylpiperidin-3-yl)pyrimidin-4-yl)-3′-fluoro-[2,4′-bipyridin]-5-ol 4hydrochloride] | 110 |  |  |  |  |  | 40 | 390 | 190 | 100

The remaining lines, values ahead:

GI50 (A549; 72 hrs) [nM] | GI50 (HCT116; Homo sapiens, HCT-116, 72 h) [nM] | GI50 (NCI-H23; Homo sapiens, NCI-H23, 72 h) [nM] | GI50 (T98G; Homo sapiens, T98G, 72 h) [nM] | GI50 (U-87MG; Homo sapiens, U-87 MG, 72 h) [nM] | GI50 (A549; Homo sapiens, A549, 72 h) [nM] | GI50 (HCT116; 72 hrs) [nM] | GI50 (NCI-H23; 72 hrs) [nM] | GI50 (T98G; 72 hrs) [nM] | GI50 (U-87MG; 72 hrs) [nM] | Compound
 | 30 | 190 | 110 | 100 | 80 |  |  |  |  | Nc1nc(-c2nc(-c3ccnc(N)c3F)ccc2O)cc(C2CCOCC2)n1 [Example 32, 2′-amino-6-(2-amino-6-(tetrahydro-2H-pyran-4-yl)pyrimidin-4-yl)-3′-fluoro-[2,4′-bipyridin]-5-ol]
230 |  |  |  |  |  | 150 | 520 | 480 | 320 | CCN1CCC(c2nc(N)nc(-c3nc(-c4ccnc(N)c4F)ccc3O)c2C)CC1 [Example 94, 2′-amino-6-(2-amino-6-(1-ethylpiperidin-4-yl)-5-methylpyrimidin-4-yl)-3′-fluoro-[2,4′-bipyridin]-5-ol 4hydrochloride]
160 |  |  |  |  |  | 110 | 290 | 160 | 120 | Cc1c(-c2nc(-c3ccnc(N)c3F)ccc2O)nc(N)nc1C1CCCN(C)C1 (stereo not shown) [Example 97]
